# Assay results as given in patent publication US20260216368A1, “BIS-ESTER AND AMIDE CATIONIC LIPIDS” (SANOFI PASTEUR INC., priority 2022, published 2026).
# What was measured:
# [1] = RiboGreen assay, % encapsulation of mRNA in lipid nanoparticles; format: physicochemical; conditions: hEPO mRNA LNP, Cationic Lipid:DMG-PEG2000:Cholesterol:DOPE=40:1.5:28.5:30, N/P ratio 4, Process A
# Description: In embodiments, the lipid nanoparticle encapsulates a nucleic acid, optionally an mRNA encoding a peptide or protein. In embodiments, the peptide is an antigen. In embodiments, the lipid nanoparticle encapsulates an mRNA encoding a peptide or protein. As used herein, the phrase “encapsulation percentage” refers to the fraction of therapeutic agent (e.g. mRNA) that is effectively encapsulated within a liposomal-based vehicle (e.g. a lipid nanoparticle) relative to the initial fraction of therapeutic agent present in the lipid phase. In embodiments, the lipid nanoparticles have an encapsulation percentage for mRNA of at least 50%. In embodiments, the lipid nanoparticles have an encapsulation percentage for mRNA of at least 55%. In embodiments, the lipid nanoparticles have an encapsulation percentage for mRNA of at least 60%. In embodiments, the lipid nanoparticles have an encapsulation percentage for mRNA of at least 65%. In embodiments, the lipid nanoparticles have an encapsulation percentage for mRNA of at least 70%. In embodiments, the lipid nanoparticles have an encapsulation percentage for mRNA of at least 75%. In embodiments, the lipid nanoparticles have an encapsulation percentage for mRNA of at least 80%. In embodiments, the lipid nanoparticles have an encapsulation percentage for mRNA of at least 85%. In embodiments, the lipid nanoparticles have an encapsulation percentage for mRNA of at least 90%. In embodiments, the lipid nanoparticles have an encapsulation percentage for mRNA of at least 95%. In embodiments, the encapsulation percentage is calculated by performing the Ribogreen assay (Invitrogen) with and without the presence of 0.1% Triton-X 100.
# The RiboGreen Assay is a fluorescence-based method for the determination of mRNA concentration (Total and Free) and % encapsulation using Quant-iT™ RiboGreen® RNA reagent in mRNA containing lipid nanoparticles.
# • To each of the standards (Blank, mRNA-1, mRNA-2. mRNA-3, mRNA-4, mRNA-5) and Samples (free mRNA and total mRNA), add 1.0 mL of 200-fold Ribogreen Reagent Solution and gently mix by inversion. This is a 2× Dilution. • Add 200 μL of each standard and sample in triplicate using the reverse pipetting technique in a 96-well Costar Black with Clear Background Plate. Ensure no bubbles are present in the plate before the fluorescence reading. • Read the fluorescence signal using the below instrument parameters: • Read Type: Fluorescence, Bottom Read • Excitation: 485 nm; Cut-off: 515 nm; Emission: 530 nm • Plate Type: 96-well Costar Black with Clear Background
# The average fluorescence from each calibration standard is plotted against the concentration to generate a linear calibration curve using the MS Excel software. The coefficient of determination (R^2) of calibration curve must be R^2>0.99.
# [formula] • Where, • Y=average fluorescence value • m: slope • x: concentration (pg/mL) • c: y-intercept • Using the linear equation, calculate the concentration of free and total mRNA concentration in the test sample by replacing the y value in the equation with the average fluorescence value of each respective sample • Once the concentration is determined, the actual concentration in the sample can be back-calculated by multiplying the concentration in the test sample with the dilution factor (DF) as follows:
# [formula] • Concentration of encapsulated mRNA can be determined by subtracting the concentration of free mRNA from the total mRNA. • % Encapsulation can then be calculated by taking the ratio of encapsulated mRNA over total mRNA and multiplying the result with 100.
# [2] = DLS size and polydispersity of hEPO mRNA lipid nanoparticles; format: physicochemical; conditions: hEPO mRNA LNP, Cationic Lipid:DMG-PEG2000:Cholesterol:DOPE=40:1.5:28.5:30, N/P ratio 4, Process A
# Method: The lipid nanoparticles in the examples of the present invention were formulated using Process A of WO 2018/089801 (see, e.g., Example 1 and FIG. 1 of WO 2018/089801). Process A (“A”) relates to a conventional method of encapsulating mRNA by mixing mRNA with a mixture of lipids, without first pre-forming the lipids into lipid nanoparticles. In an exemplary process, an ethanol lipid solution and an aqueous buffered solution of mRNA were prepared separately. A solution of mixture of lipids (cationic lipid, helper lipids, zwitterionic lipids, PEG lipids etc.) was prepared by dissolving lipids in ethanol. The mRNA solution was prepared by dissolving the mRNA in citrate buffer. Then, these two solutions were mixed using a pump system. In some instances, the two solutions were mixed using a gear pump system. In certain embodiments, the two solutions were mixing using a ‘T’ junction (or “Y” junction). The mixture was then purified by diafiltration with a TFF process. The resultant formulation concentrated and stored at 2-8° C. until further use.
# (§1) Lipid nanoparticle formulations of Table 1 were prepared by Process A. More specifically, an ethanolic solution of a mixture of lipids including DMG-PEG-2000, cationic lipid, cholesterol, and phosphatidylethanolamine (DOPE) in a ratio of 1.5:40:28.5:30 were combined with an aqueous buffered solution (1 mM Citrate and 150 mM NaCl) of target mRNA at an acidic pH (4.5) under controlled conditions to yield a dispersion of uniform lipid nanoparticles (LNPs). Upon ultrafiltration and diafiltration into the final buffer, the resulting nanoparticle dispersions were diluted to required concentration using the final buffer (10% Trehalose), sterile filtered and stored frozen at −80° C. until use.
# All of the lipid nanoparticle formulations comprised hEPO mRNA and the different lipids in following mol % ratios: Cationic Lipid: DMG-PEG2000; Cholesterol:DOPE=40:1.5:28.5:30.
# DLS measurements were performed using a Malvern Instruments Zetasizer with a backscattering detector angle of 173° and a 4-mW, 633-nm He—Ne laser (Worcestershire, UK). The samples were analyzed by diluting in 10% Trehalose and measuring the size and Poly dispersity Index (PDI) in an optical grade polystyrene cuvette.
# The following lipid nanoparticles were formulated according to Example 51.
# as §1, with “Table 3” for “Table 1”
# [3] = tested on: Human erythropoietin (hEPO) levels in sera; assay: Delivery of hEPO mRNA by intramuscular administration of lipid nanoparticles; serum hEPO by ELISA; format: in vivo, Mouse; conditions: for hEPO 6 Hr (ng/mL) Mean: 6 hours post dose
# Method: WO2022/099003 A1 describes an in vivo assay for intramuscular administration (e.g. on page 46, paragraph [00206]). Further details of the intramuscular experiment performed in this application are provided below.
# Treatment Regimen: On Day 1, animals from Groups 1-8 were dosed via intramuscular injection while under light isoflurane anesthesia according to the study design table above. Animals in Groups 2-8 were injected with EPO in the right leg only. Group 1 animals received saline control.
# Interim Sample Collections: Interim whole blood (~50 μL) was collected by tail snip or saphenous vein at 6 hours post dose administration (±5%). Blood samples were collected into serum separator tubes, allowed to clot at room temperature for at least 10 minutes, centrifuged at ambient temperature at minimum 1000 g for 10 minutes and the serum was extracted. All serum samples were stored at nominally −70° C. until analysis hEPO by the Testing Facility. The results of the EPO analysis were included in the Data Submission.
# Terminal Blood Collections: Whole blood was collected via cardiac puncture into serum separator tube, allowed to clot at room temperature for at least 10 minutes, centrifuged at ambient temperature at minimum 1000 g for 10 minutes and the serum was extracted. Serum samples were stored at nominally −70° C. until analyzed for hEPO by the Test Facility.
# ELISA Assay: Human erythropoietin (hEPO) levels in sera samples were determined by ELISA kit (R&D systems, Cat #DEP-00) according to the manufactory instruction and the results were included in the Data Submission. The “shaker” protocol was used. The serum samples were diluted between 1:40 and 1:100.
# The ability of the further exemplary lipid nanoparticles in Example 54 to deliver hEPO mRNA by intramuscular administration was tested in accordance with the experimental protocol set out in Example 52.
# [4] = fourth occasion, serum, 0.1 μg/animal hEPO mRNA LNP, IM, mice, n=4
# [5] = first occasion, serum, 0.1 μg/animal hEPO mRNA LNP, IM, mice, n=4
# [6] = fifth occasion, serum, 0.1 μg/animal hEPO mRNA LNP, IM, mice, n=4
Compound,"Encapsulation Percentage (%) ([1]; Table 3, further LNPs)","PDI ([2]; Table 3, further LNPs)","Size (nm) ([2]; Table 3, further LNPs)","hEPO 6 Hr (ng/mL) Mean [3, 4]",further results
"CCCCCCCCCCC(O)CN(CCCNC(=O)CC(C)(C)CC(=O)NCCCN(CC(O)CCCCCCCCCC)CC(O)CCCCCCCCCC)CC(O)CCCCCCCCCC (centres unmarked) [Compound LXXXVII, N,N′-bis({3-[bis(2-hydroxydodecyl)amino]propyl})-3,3-dimethylpentanediamide]",88%,0.111,123 nm,,"hEPO 6 Hr (ng/mL) Mean [3, 5]: 29.1 ng/mL"
"CCCCCCCCCCCOC(=O)CCCC(O)CN(CCCCN(C)C(=O)CN(C)CC(=O)N(C)CCCCN(CC(O)CCCCCC(=O)OC(CCCCCCCC)CCCCCCCC)CC(O)CCCC(=O)OCCCCCCCCCCC)CC(O)CCCCCC(=O)OC(CCCCCCCC)CCCCCCCC (centres unmarked) [Compound LXXVII, di(heptadecan-9-yl) 7,27-dihydroxy-9,25-bis(2-hydroxy-6-oxo-6-(undecyloxy)hexyl)-14,17,20-trimethyl-15,19-dioxo-9,14,17,20,25-pentaazatritriacontanedioate]",99%,0.137,114 nm,,"hEPO 6 Hr (ng/mL) Mean [3, 6]: 45.6 ng/mL"
"CCCCCCCCCCC(O)CN(CCCOC(=O)[C@H](CCc1ccc(O)cc1)NC(=O)CCCN(CC(O)CCCCCCCCCC)CC(O)CCCCCCCCCC)CC(O)CCCCCCCCCC (stereo partly drawn) [Compound C, 3-[bis(2-hydroxydodecyl)amino]propyl (S)-2-{4-[bis(2-hydroxydodecyl)amino]butyrylamino}-4-(p-hydroxyphenyl)butyrate]",82%,0.093,108 nm,37.2 ng/mL,
"CCCCCCCCCCC(O)CN(CCCOC(=O)N[C@@H](Cc1c[nH]cn1)C(=O)OCCCN(CC(O)CCCCCCCCCC)CC(O)CCCCCCCCCC)CC(O)CCCCCCCCCC (stereo partly drawn) [Compound CIII, 3-(bis(2-hydroxydodecyl)amino)propyl ((3-(bis(2-hydroxydodecyl)amino)propoxy)carbonyl)-L-histidinate]",91%,0.126,93 nm,15.4 ng/mL,
CCCCCC/C=C\COC(=O)CCCCCC(O)CN(CCCOC(=O)CN(C)CC(=O)OCCCN(CC(O)CCCCCC(=O)OC/C=C\CCCCCC)CC(O)CCCCCC(=O)OC/C=C\CCCCCC)CC(O)CCCCCC(=O)OC/C=C\CCCCCC (centres unmarked) [XV],,,,,"Encapsulation Percentage (%) ([1]; Table 1): 33%; PDI ([2]; Table 1): 0.052; Size (nm) ([2]; Table 1): 134 nm; in vivo hEPO protein production (FIG. 51) ([3]; intramuscular delivery of hEPO mRNA using lipid nanoparticles comprising the compound, result in words): high levels of in vivo hEPO protein production; hEPO 6 Hr (ng/mL) Mean ([3]; serum, 0.1 μg/animal hEPO mRNA LNP, single IM injection, female BALB/cJ mice, n=4): 31.9 ng/mL; hEPO 24 Hr (ng/mL) Mean ([3]; serum, 24 hours post dose, 0.1 μg/animal hEPO mRNA LNP, single IM injection, female BALB/cJ mice, n=4): 15.1 ng/mL"

# Continued, in another order:
"Encapsulation Percentage (%) ([1]; Table 3, further LNPs)","PDI ([2]; Table 3, further LNPs)","Size (nm) ([2]; Table 3, further LNPs)",Compound,"hEPO 6 Hr (ng/mL) Mean [3, 4]",further results
66%,0.191,94 nm,"CCCCCCCCCCC(O)CN(CCCOC(=O)[C@H](Cc1ccccc1)NC(=O)CCCN(CC(O)CCCCCCCCCC)CC(O)CCCCCCCCCC)CC(O)CCCCCCCCCC (stereo partly drawn) [Compound XCV, 3-[bis(2-hydroxydodecyl)amino]propyl (S)-2-{4-[bis(2-hydroxydodecyl)amino]butyrylamino}-3-phenylpropionate]",22.4 ng/mL,
83%,0.101,125 nm,"CCCCCCCCCCC(O)CN(CCCOC(=O)N[C@@H](Cc1ccccc1)C(=O)OCCCN(CC(O)CCCCCCCCCC)CC(O)CCCCCCCCCC)CC(O)CCCCCCCCCC (stereo partly drawn) [Compound XCVII, 3-(bis(2-hydroxydodecyl)amino)propyl ((3-(bis(2-hydroxydodecyl)amino)propoxy)carbonyl)-L-phenylalaninate]",,"hEPO 6 Hr (ng/mL) Mean ([3]; third occasion, serum, 0.1 μg/animal hEPO mRNA LNP, IM, mice, n=4): 16.0 ng/mL"
96%,0.085,138 nm,CCCCCCCCCCC(=O)OCCCCC(O)CN(CCCCNC(=O)CC(C)(O)CC(=O)NCCCCN(CC(O)CCCCCOC(=O)C(CCCCCCCC)CCCCCCCC)CC(O)CCCCOC(=O)CCCCCCCCCC)CC(O)CCCCCOC(=O)C(CCCCCCCC)CCCCCCCC (centres unmarked) [Compound XCIV],,"hEPO 6 Hr (ng/mL) Mean [3, 6]: 36.4 ng/mL"
84%,0.134,100 nm,CCCCCCCCC(O)CN(CCCNC(=O)CC(C)(O)CC(=O)NCCCN(CC(O)CCCCCCCC)CC(O)CCCCCCCC)CC(O)CCCCCCCC (centres unmarked) [LXXXVIII],,"hEPO 6 Hr (ng/mL) Mean [3, 5]: 51.7 ng/mL"
